Experimental data taken from patent US10213433B2 (AbbVie Inc., priority 2010, dated 2019).

Biological target: Bcl-2 protein (Homo sapiens (Human), UniProt P10415)
Assay: Bcl-2 binding TR-FRET (Time-Resolved Fluorescence-Resonance-Energy-Transfer) assay
Details: inhibition constant for binding to Bcl-2 protein
From the text: The smaller the Ki value, the greater is the binding affinity.

Chain of Bcl-2 protein (P10415 whole entry): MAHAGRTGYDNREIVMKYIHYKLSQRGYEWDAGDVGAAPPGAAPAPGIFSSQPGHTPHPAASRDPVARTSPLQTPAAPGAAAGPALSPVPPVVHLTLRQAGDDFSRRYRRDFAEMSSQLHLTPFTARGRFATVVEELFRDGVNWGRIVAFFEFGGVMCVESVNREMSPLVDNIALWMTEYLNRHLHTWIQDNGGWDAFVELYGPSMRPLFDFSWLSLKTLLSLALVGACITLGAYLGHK

Row | Compound | Ki [nM]
1 | CC1(C)CCC(CN2CCN(c3ccc(C(=O)NS(=O)(=O)c4ccc(N[C@@H]5CCN(C6CC6)C5)c([N+](=O)[O-])c4)c(Oc4cnc5[nH]ccc5c4)c3)CC2)=C(c2ccc(Cl)cc2)C1 [Compound 144, 4-(4-{[2-(4-chlorophenyl)-4,4-dimethylcyclohex-1-en-1-yl]methyl}piperazin-1-yl)-N-[(4-{[(3R)-1-cyclopropylpyrrolidin-3-yl]amino}-3-nitrophenyl)sulfonyl]-2-(1H-pyrrolo[2,3-b]pyridin-5-yloxy)benzamide] | < 0.01
2 | CC1(C)CCC(CN2CCN(c3ccc(C(=O)NS(=O)(=O)c4ccc(NC[C@@H]5CCN(C6CCOCC6)C5)c([N+](=O)[O-])c4)c(Oc4cnc5[nH]ccc5c4)c3)CC2)=C(c2ccc(Cl)cc2)C1 [Compound 145, 4-(4-{[2-(4-chlorophenyl)-4,4-dimethylcyclohex-1-en-1-yl]methyl}piperazin-1-yl)-N-{[3-nitro-4-({[(3S)-1-tetrahydro-2H-pyran-4-ylpyrrolidin-3-yl]methyl}amino)phenyl]sulfonyl}-2-(1H-pyrrolo[2,3-b]pyridin-5-yloxy)benzamide] | < 0.01
3 | CC(C)(CO)CNc1ccc(S(=O)(=O)NC(=O)c2ccc(N3CCN(CC4=C(c5ccc(Cl)cc5)CC(C)(C)CC4)CC3)cc2Oc2cnc3[nH]ccc3c2)cc1[N+](=O)[O-] [Compound 146, 4-(4-{[2-(4-chlorophenyl)-4,4-dimethylcyclohex-1-en-1-yl]methyl}piperazin-1-yl)-N-({4-[(3-hydroxy-2,2-dimethylpropyl)amino]-3-nitrophenyl}sulfonyl)-2-(1H-pyrrolo[2,3-b]pyridin-5-yloxy)benzamide] | < 0.01
4 | CC1(C)CCC(CN2CCN(c3ccc(C(=O)NS(=O)(=O)c4ccc(NCC5CCCN(S(C)(=O)=O)C5)c([N+](=O)[O-])c4)c(Oc4cnc5[nH]ccc5c4)c3)CC2)=C(c2ccc(Cl)cc2)C1 (stereo not drawn) [Compound 147, 4-(4-{[2-(4-chlorophenyl)-4,4-dimethylcyclohex-1-en-1-yl]methyl}piperazin-1-yl)-N-{[4-({[1-(methylsulfonyl)piperidin-3-yl]methyl}amino)-3-nitrophenyl]sulfonyl}-2-(1H-pyrrolo[2,3-b]pyridin-5-yloxy)benzamide] | < 0.01
5 | CC(=O)N1CCCC(CNc2ccc(S(=O)(=O)NC(=O)c3ccc(N4CCN(CC5=C(c6ccc(Cl)cc6)CC(C)(C)CC5)CC4)cc3Oc3cnc4[nH]ccc4c3)cc2[N+](=O)[O-])C1 (stereo not drawn) [Compound 148, N-[(4-{[(1-acetylpiperidin-3-yl)methyl]amino}-3-nitrophenyl)sulfonyl]-4-(4-{[2-(4-chlorophenyl)-4,4-dimethylcyclohex-1-en-1-yl]methyl}piperazin-1-yl)-2-(1H-pyrrolo[2,3-b]pyridin-5-yloxy)benzamide] | < 0.01
6 | CC1(C)CCC(CN2CCN(c3ccc(C(=O)NS(=O)(=O)c4ccc(N[C@@H]5CCN(S(C)(=O)=O)C5)c([N+](=O)[O-])c4)c(Oc4cnc5[nH]ccc5c4)c3)CC2)=C(c2ccc(Cl)cc2)C1 [Compound 149, 4-(4-{[2-(4-chlorophenyl)-4,4-dimethylcyclohex-1-en-1-yl]methyl}piperazin-1-yl)-N-[(4-{[(3R)-1-(methylsulfonyl)pyrrolidin-3-yl]amino}-3-nitrophenyl)sulfonyl]-2-(1H-pyrrolo[2,3-b]pyridin-5-yloxy)benzamide] | < 0.01
7 | CC1(C)CCCC(CN2CCN(c3ccc(C(=O)NS(=O)(=O)c4ccc(NCC5CCOCC5)c([N+](=O)[O-])c4)c(Oc4cnc5[nH]ccc5c4)c3)CC2)=C1c1ccc(Cl)cc1 [Compound 150, 4-(4-{[2-(4-chlorophenyl)-3,3-dimethylcyclohex-1-en-1-yl]methyl}piperazin-1-yl)-N-({3-nitro-4-[(tetrahydro-2H-pyran-4-ylmethyl)amino]phenyl}sulfonyl)-2-(1H-pyrrolo[2,3-b]pyridin-5-yloxy)benzamide] | < 0.01
8 | CC1(C)CCC(CN2CCN(c3ccc(C(=O)NS(=O)(=O)c4ccc(NCC5CCN(S(C)(=O)=O)C5)c([N+](=O)[O-])c4)c(Oc4cnc5[nH]ccc5c4)c3)CC2)=C(c2ccc(Cl)cc2)C1 (stereo not drawn) [Compound 152, 4-(4-{[2-(4-chlorophenyl)-4,4-dimethylcyclohex-1-en-1-yl]methyl}piperazin-1-yl)-N-{[4-({[1-(methylsulfonyl)pyrrolidin-3-yl]methyl}amino)-3-nitrophenyl]sulfonyl}-2-(1H-pyrrolo[2,3-b]pyridin-5-yloxy)benzamide] | < 0.01
9 | CC(=O)N1CCC(CNc2ccc(S(=O)(=O)NC(=O)c3ccc(N4CCN(CC5=C(c6ccc(Cl)cc6)CC(C)(C)CC5)CC4)cc3Oc3cnc4[nH]ccc4c3)cc2[N+](=O)[O-])C1 (stereo not drawn) [Compound 153, N-[(4-{[(1-acetylpyrrolidin-3-yl)methyl]amino}-3-nitrophenyl)sulfonyl]-4-(4-{[2-(4-chlorophenyl)-4,4-dimethylcyclohex-1-en-1-yl]methyl}piperazin-1-yl)-2-(1H-pyrrolo[2,3-b]pyridin-5-yloxy)benzamide] | < 0.01
10 | CC(=O)N1CC[C@@H](Nc2ccc(S(=O)(=O)NC(=O)c3ccc(N4CCN(CC5=C(c6ccc(Cl)cc6)CC(C)(C)CC5)CC4)cc3Oc3cnc4[nH]ccc4c3)cc2[N+](=O)[O-])C1 [Compound 154, N-[(4-{[(3R)-1-acetylpyrrolidin-3-yl]amino}-3-nitrophenyl)sulfonyl]-4-(4-{[2-(4-chlorophenyl)-4,4-dimethylcyclohex-1-en-1-yl]methyl}piperazin-1-yl)-2-(1H-pyrrolo[2,3-b]pyridin-5-yloxy)benzamide] | < 0.01
11 | CC1(C)CCC(CN2CCN(c3ccc(C(=O)NS(=O)(=O)c4ccc(NC[C@@H]5CC[C@@H](O)C5)c([N+](=O)[O-])c4)c(Oc4cnc5[nH]ccc5c4)c3)CC2)=C(c2ccc(Cl)cc2)C1 [Compound 156, 4-(4-{[2-(4-chlorophenyl)-4,4-dimethylcyclohex-1-en-1-yl]methyl}piperazin-1-yl)-N-{[4-({[(1R,3R)-3-hydroxycyclopentyl]methyl}amino)-3-nitrophenyl]sulfonyl}-2-(1H-pyrrolo[2,3-b]pyridin-5-yloxy)benzamide] | < 0.01
12 | CC1(C)CCC(CN2CCN(c3ccc(C(=O)NS(=O)(=O)c4ccc(NC[C@H]5CC[C@H](O)C5)c([N+](=O)[O-])c4)c(Oc4cnc5[nH]ccc5c4)c3)CC2)=C(c2ccc(Cl)cc2)C1 [Compound 157, 4-(4-{[2-(4-chlorophenyl)-4,4-dimethylcyclohex-1-en-1-yl]methyl}piperazin-1-yl)-N-{[4-({[(1S,3S)-3-hydroxycyclopentyl]methyl}amino)-3-nitrophenyl]sulfonyl}-2-(1H-pyrrolo[2,3-b]pyridin-5-yloxy)benzamide] | < 0.01
13 | CC1(C)CCC(CN2CCN(c3ccc(C(=O)NS(=O)(=O)c4ccc(NC[C@H]5CC[C@@H](O)C5)c([N+](=O)[O-])c4)c(Oc4cnc5[nH]ccc5c4)c3)CC2)=C(c2ccc(Cl)cc2)C1 [Compound 158, 4-(4-{[2-(4-chlorophenyl)-4,4-dimethylcyclohex-1-en-1-yl]methyl}piperazin-1-yl)-N-{[4-({[(1S,3R)-3-hydroxycyclopentyl]methyl}amino)-3-nitrophenyl]sulfonyl}-2-(1H-pyrrolo[2,3-b]pyridin-5-yloxy)benzamide] | < 0.01
14 | CC1(C)CCC(CN2CCN(c3ccc(C(=O)NS(=O)(=O)c4ccc(NC[C@@H]5CC[C@H](O)C5)c([N+](=O)[O-])c4)c(Oc4cnc5[nH]ccc5c4)c3)CC2)=C(c2ccc(Cl)cc2)C1 [Compound 159, 4-(4-{[2-(4-chlorophenyl)-4,4-dimethylcyclohex-1-en-1-yl]methyl}piperazin-1-yl)-N-{[4-({[(1R,3S)-3-hydroxycyclopentyl]methyl}amino)-3-nitrophenyl]sulfonyl}-2-(1H-pyrrolo[2,3-b]pyridin-5-yloxy)benzamide] | < 0.01
15 | CC1(C)CCC(CN2CCN(c3ccc(C(=O)NS(=O)(=O)c4ccc(N[C@H]5CCCNC5=O)c([N+](=O)[O-])c4)c(Oc4cnc5[nH]ccc5c4)c3)CC2)=C(c2ccc(Cl)cc2)C1 [Compound 160, 4-(4-{[2-(4-chlorophenyl)-4,4-dimethylcyclohex-1-en-1-yl]methyl}piperazin-1-yl)-N-[(3-nitro-4-{[(3S)-2-oxopiperidin-3-yl]amino}phenyl)sulfonyl]-2-(1H-pyrrolo[2,3-b]pyridin-5-yloxy)benzamide] | < 0.01
16 | CC1(C)CCC(CN2CCN(c3ccc(C(=O)NS(=O)(=O)c4ccc(NCC5CN(C(CF)CF)C5)c([N+](=O)[O-])c4)c(Oc4cnc5[nH]ccc5c4)c3)CC2)=C(c2ccc(Cl)cc2)C1 [Compound 161, 4-(4-{[2-(4-chlorophenyl)-4,4-dimethylcyclohex-1-en-1-yl]methyl}piperazin-1-yl)-N-({4-[({1-[2-fluoro-1-(fluoromethyl)ethyl]azetidin-3-yl}methyl)amino]-3-nitrophenyl}sulfonyl)-2-(1H-pyrrolo[2,3-b]pyridin-5-yloxy)benzamide] | < 0.01
17 | CC1(C)CCC(CN2CCN(c3ccc(C(=O)NS(=O)(=O)c4ccc(NCC5CN(C6COC6)C5)c([N+](=O)[O-])c4)c(Oc4cnc5[nH]ccc5c4)c3)CC2)=C(c2ccc(Cl)cc2)C1 [Compound 162, 4-(4-{[2-(4-chlorophenyl)-4,4-dimethylcyclohex-1-en-1-yl]methyl}piperazin-1-yl)-N-[(3-nitro-4-{[(1-oxetan-3-ylazetidin-3-yl)methyl]amino}phenyl)sulfonyl]-2-(1H-pyrrolo[2,3-b]pyridin-5-yloxy)benzamide] | < 0.01
18 | CC1(C)CCC(CN2CCN(c3ccc(C(=O)NS(=O)(=O)c4ccc(NCC5CCN(C6COC6)CC5)c([N+](=O)[O-])c4)c(Oc4cnc5[nH]ccc5c4)c3)CC2)=C(c2ccc(Cl)cc2)C1 [Compound 163, 4-(4-{[2-(4-chlorophenyl)-4,4-dimethylcyclohex-1-en-1-yl]methyl}piperazin-1-yl)-N-[(3-nitro-4-{[(1-oxetan-3-ylpiperidin-4-yl)methyl]amino}phenyl)sulfonyl]-2-(1H-pyrrolo[2,3-b]pyridin-5-yloxy)benzamide] | < 0.01
